{"source": "paper PMC12337087", "about": "(Phytotherapy Research, 2025)", "target": "Phosphoglycerate mutase 1 (PGAM1) (Homo sapiens, UniProt P18669)", "sequence (P18669 2-254)": "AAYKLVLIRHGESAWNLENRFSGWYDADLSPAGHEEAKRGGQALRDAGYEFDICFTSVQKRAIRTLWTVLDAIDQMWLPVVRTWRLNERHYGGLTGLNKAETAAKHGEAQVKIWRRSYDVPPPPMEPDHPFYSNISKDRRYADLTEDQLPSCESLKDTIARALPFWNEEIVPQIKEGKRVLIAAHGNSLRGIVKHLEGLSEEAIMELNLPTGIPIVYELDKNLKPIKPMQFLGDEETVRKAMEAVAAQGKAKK", "assay": "SPR", "type": "binding"}
{"smiles": "Cc1cccc2c3c(ccc12)C1=C(C(=O)C3=O)[C@@H](C)CO1", "note": "[DHT, Dihydrotanshinone I]", "values": [{"measurement": "Kd", "value": 697, "unit": "nM"}]}
